In patent publication US5032597A, “Method of using phenylquinolinecarboxylic acids and derivatives for lymthoid leukemia treatment in a mammal” (priority 1987, dated 1991):
≈ marks a conversion by molar mass, not a printed value. Where “and” joins values, the source holds several entries; their conditions need not be identical. Equal entries are not always repeated. Where two headings read alike, the source gives them in different places.

Assays:
L1210 leukemia = assay: Lymphoid Leukemia L1210, survival of tumored mice; format: in vivo, CD2F1 mice; details: for response vs control in vivo at 50 mg/kg: 50 mg/kg i.p.
How it was run: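 Male CD2 F1 mice, six per group, received 10^5 L1210 cells i.p. on day 0. Compounds in hydroxypropylcellulose, saline/Tween 80 or saline were given i.p. at various doses once daily on days 1-9, with vehicle controls.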

[1] = tested on: human colon carcinoma cells HCT-15; assay: Human colon tumor test in vitro, HCT-15 cell growth inhibition; format: cell-based; details: for IC50: Homo sapiens, HCT-15, 72 h, read-out: in vitro HCT-15 ID50 (50 percent inhibition of number of doublings); for in vitro HCT-15 ID50 (50 percent inhibition of number of doublings): 4320 min
Experimental: The compound of this invention were also tested for their ability to inhibit the growth of human colon carcinoma cells in vitro.
The human colon carcinoma cells, designated HCT-15, were derived from a specimen of an adenocarcinoma of human colon removed during surgery. The cells were grown in Roswell Park Medical Institute (RPMI) Medium 1640 supplemented with 10% heat inactivated fetal calf serum, penicillin (100 units/ml), streptomycin (100 μg/ml), gentamicin (20 μg/ml), fungizone (25 μg/ml), 0.075 percent sodium bicarbonate, […] 4-(2-hydroxyethyl)-1-piperazineethanesulfonic acid and […] N-tris(hydroxymethyl)methylglycine. […] On day 1 cells from sample dishes were harvested using trypsin (0.25%) treatment and counted with a hemocytometer to determine the number of cells per dish at the time of the addition of the compounds. Compounds of this invention were added in varying concentrations to other cultures. On day 4, treated and control cultures were harvested by trypsin treatment and the number of cells was determined. The number of doublings for the control cells was determined from the cell numbers on days 1 and 4. The ID50, the concentration of compound required to inhibit by 50 percent the number of doublings, was then calculated from the dose-response curve in which cell numbers were plotted on log-log paper against compound concentrations in micrograms per ml.

[2] = HCT-15 cells, compound day 1 to day 4
[3] = Mus musculus, L1210, ip, 720 h, nonoptimal Q1DX9 instead of Q3DX9, read-out: L1210 Leukemia % T/C (median survival time)
[4] = Mus musculus, L1210, ip, 720 h, 25 mg/kg i.p., nonoptimal Q1DX9 instead of Q3DX9, read-out: L1210 Leukemia % T/C (median survival time)
[5] = Mus musculus, L1210, ip, 720 h, 100 mg/kg i.p., read-out: L1210 Leukemia % T/C (median survival time)
[6] = Mus musculus, L1210, ip, 720 h, 75 mg/kg i.p., read-out: L1210 Leukemia % T/C (median survival time)
[7] = Mus musculus, L1210, ip, 720 h, 37.5 mg/kg i.p., nonoptimal Q1DX9 instead of Q3DX9, read-out: L1210 Leukemia % T/C (median survival time)

Molecule `Cc1c(-c2ccc(Cc3ccccc3)cc2)nc2ccc(Cl)cc2c1C(=O)O` [Example 112] has a response vs control in vivo at 25 mg/kg (L1210 leukemia; Mus musculus, L1210, ip, 720 h, 25 mg/kg i.p., read-out: L1210 Leukemia % T/C (median survival time)) of 128% and an IC50 [1, 2] of under 0.5 µg/mL.

For `COc1ccc(-c2ccc(-c3nc4ccc(Cl)cc4c(C(=O)O)c3C)cc2)cc1` [Example 114], the response vs control in vivo at 50 mg/kg (L1210 leukemia; [3]) was 121% and the “in vitro HCT-15 ID50 (50 percent inhibition of number of doublings)” value [1, 2] was 1.30 µg/mL.

For `Cc1c(-c2ccc(-c3ccccc3F)cc2)nc2ccc(F)cc2c1C(=O)[O-].[Na+]` [Example 118, Sodium 2-(2'-Fluoro-1,1'-biphenyl-4-yl)-6-fluoro-3-methylquinoline-4-carboxylate], the response vs control in vivo at 25 mg/kg (L1210 leukemia; Mus musculus, L1210, ip, 720 h, read-out: L1210 Leukemia % T/C (median survival time), 25 mg/kg i.p.) was 179% and the IC50 [1] was 0.017 µg/mL.

With `Cc1c(-c2ccc(Oc3ccc(Cl)cc3)cc2)nc2ccc(F)cc2c1C(=O)O` [Example 119] the “L1210 Leukemia % T/C (median survival time)” value (“L1210 Leukemia % T/C” below) (L1210 leukemia; 18 mg/kg i.p.) was 170% and the “in vitro HCT-15 ID50 (50 percent inhibition of number of doublings)” value [1, 2] was under 0.50 µg/mL.

With `Cc1c(-c2ccc(-c3ccc(F)cc3)cc2)nc2ccc(F)cc2c1C(=O)O` [Example 121] the response vs control in vivo at 18 mg/kg (L1210 leukemia; Mus musculus, L1210, ip, 720 h, 18 mg/kg i.p., read-out: L1210 Leukemia % T/C (median survival time)) was 175% and the “in vitro HCT-15 ID50 (50 percent inhibition of number of doublings)” value [1, 2] was under 0.50 µg/mL.

For `CCc1ccc(-c2ccc(-c3nc4ccc(F)cc4c(C(=O)O)c3C)cc2)cc1` [Example 130], the response vs control in vivo at 50 mg/kg (L1210 leukemia; Mus musculus, L1210, ip, 720 h, read-out: L1210 Leukemia % T/C (median survival time)) was 132% and the “in vitro HCT-15 ID50 (50 percent inhibition of number of doublings)” value [1, 2] was over 1.0 µg/mL.

In the case of `Cc1c(-c2ccc(C3CCCCC3)cc2)nc2c(Br)cc(Br)cc2c1C(=O)O` [Example 136], the response vs control in vivo at 25 mg/kg (L1210 leukemia; [4]) is reported as 103% and the “in vitro HCT-15 ID50 (50 percent inhibition of number of doublings)” value [1, 2] is reported as over 0.50 µg/mL.

For `Cc1c(-c2ccc(-c3ccccc3)cc2)nc2cc(Cl)c(Cl)cc2c1C(=O)O` [Example 137], the response vs control in vivo at 50 mg/kg (L1210 leukemia; [3]) was 107% and the “in vitro HCT-15 ID50 (50 percent inhibition of number of doublings)” value [1, 2] was over 5.00 µg/mL.

For `Cc1c(-c2ccc(-c3ccccc3)cc2)nc2cc(Cl)ccc2c1C(=O)O` [Example 139], the response vs control in vivo at 100 mg/kg (L1210 leukemia; [5]) was 146% and the “in vitro HCT-15 ID50 (50 percent inhibition of number of doublings)” value [1, 2] was under 5.00 µg/mL.

With `CCc1ccc2nc(-c3ccc(-c4ccccc4)cc3)c(C)c(C(=O)O)c2c1` [Example 141] the “L1210 Leukemia % T/C” value (L1210 leukemia; 75 mg/kg i.p.) was 139% and the “in vitro HCT-15 ID50 (50 percent inhibition of number of doublings)” value [1, 2] was under 0.50 µg/mL.

`Cc1ccc2c(C(=O)O)c(C)c(-c3ccc(-c4ccccc4)cc3)nc2c1` [Example 145] gave a response vs control in vivo at 75 mg/kg (L1210 leukemia; [6]) of 132% and an IC50 [1, 2] of under 0.5 µg/mL.

With `Cc1cc2c(C(=O)O)c(C)c(-c3ccc(-c4ccccc4)cc3)nc2cc1Cl` [Example 148] the response vs control in vivo at 37.5 mg/kg (L1210 leukemia; [7]) was 102% and the “in vitro HCT-15 ID50 (50 percent inhibition of number of doublings)” value [1, 2] was over 5.00 µg/mL.

`CSc1ccc2nc(-c3ccc(-c4ccccc4)cc3)c(C)c(C(=O)O)c2c1` [Example 161] was tested, and the response vs control in vivo at 100 mg/kg (L1210 leukemia; [5]) was 148% and the IC50 [1, 2] was over 1 µg/mL.

For `Cc1ccc(-c2ccc(-c3nc4ccc(F)c(Cl)c4c(C(=O)O)c3C)cc2)cc1` [Example 168], the “L1210 Leukemia % T/C” value (L1210 leukemia; 100 mg/kg i.p.) was 148% and the IC50 [1, 2] was 0.04 µg/mL (≈ 0.0986 µM).

In the case of `Cc1c(-c2ccc(-c3ccccc3)cc2)nc2ccc(Cl)cc2c1C(=O)O` [Example 171], the “L1210 Leukemia % T/C” value (L1210 leukemia; 100 mg/kg i.p.) is reported as 164% and the “in vitro HCT-15 ID50 (50 percent inhibition of number of doublings)” value [1, 2] is reported as under 0.50 µg/mL.

For `Cc1c(-c2ccc(Sc3ccccc3)cc2)nc2ccc(Cl)cc2c1C(=O)O` [Example 173], the response vs control in vivo at 25 mg/kg (L1210 leukemia; [4]) was 122% and the “in vitro HCT-15 ID50 (50 percent inhibition of number of doublings)” value [1, 2] was under 0.50 µg/mL.

For `Cc1c(-c2ccc(-c3ccccc3F)cc2)nc2ccc(F)cc2c1C(=O)O` [Example 176], the response vs control in vivo at 37 mg/kg (L1210 leukemia; Mus musculus, L1210, ip, 720 h, 37 mg/kg i.p., read-out: L1210 Leukemia % T/C (median survival time)) was 175% and the “in vitro HCT-15 ID50 (50 percent inhibition of number of doublings)” value [1, 2] was < 0.50 µg/mL and 0.41 µg/mL.

With `Cc1c(-c2ccc(-c3ccc(F)cc3)cc2)nc2ccc(F)cc2c1C(=O)O` [Example 177] the “L1210 Leukemia % T/C” value (L1210 leukemia; 37.5 mg/kg i.p.) was 172% and the “in vitro HCT-15 ID50 (50 percent inhibition of number of doublings)” value [1, 2] was under 0.50 µg/mL.

With `CCCCCCc1ccc(-c2nc3ccc(F)cc3c(C(=O)O)c2C)cc1` [Example 180] the response vs control in vivo at 18 mg/kg (L1210 leukemia; Mus musculus, L1210, ip, 720 h, 18 mg/kg i.p., nonoptimal Q1DX9 instead of Q3DX9, read-out: L1210 Leukemia % T/C (median survival time)) was 101% and the “in vitro HCT-15 ID50 (50 percent inhibition of number of doublings)” value [1, 2] was under 0.50 µg/mL.

`Cc1c(-c2ccc(C3CCCCC3)cc2)nc2ccc(F)cc2c1C(=O)O` [Example 181] was tested, and the response vs control in vivo at 37.5 mg/kg (L1210 leukemia; [7]) was 108% and the “in vitro HCT-15 ID50 (50 percent inhibition of number of doublings)” value [1, 2] was under 0.50 µg/mL.

`O=C(O)c1cc(-c2ccc(Oc3ccc(F)cc3)cc2)nc2ccc(F)cc12` [Example 187] showed a response vs control in vivo at 75 mg/kg (L1210 leukemia; [6]) of 131% and an IC50 [1, 2] of under 0.5 µg/mL.
